# Measurements as given in patent US12070467B2, “Method of treating ciliated tissue using CSA micelles” (Brigham Young University, priority 2018, dated 2024).
# Several values for one entry are separate records, joined by “and”; a condition that tells them apart may be missing. Equal entries are not always repeated. Where two headings read alike, the source gives them in different places.
# Columns and labels:
# [1] = system: C. albicans (ATCC 90028) and C. auris (CDC 384) in trachea and lung explants; assay: Ex vivo antifungal efficacy in porcine trachea and lung explants (FIGS. 7A, 7B); type: cell-based, Candida albicans, Candida auris; conditions: 24 h
# Description: Using 5 mm^3 explant cubes of porcine trachea and lung, ex vivo antifungal efficacy experiments were conducted. Cubes were dissected using a sterile razor blade form the ventral surface of the left caudal lobe of three sets of porcine lungs. After trimming excess tissues away from the explants to produce uniform of size (5 mm), explants were incubated at 37° C. in DMEM/RPMI inoculated with 10^6 CFU/explant of C. auris (CDC 0384) or C. albicans (ATCC 90028) in a 48-well plate. […] Treated explants were incubated for 24 h at 37° C. After incubation, tissues were suspended in 250 μL of neutralizing broth and vortex on the highest setting for 4 min. Samples were then serially diluted in PBS, plated on 5% sheep blood TSA plates, and incubated at 37° C. for 48 h.
# FIGS. 7A and 7B are bar graphs comparing the antifungal activity of CSA compositions with and without micelles on fungi, and against a control without any CSA. White bars shown remaining C. albicans (ATCC 90028); black bars show remaining C. auris (CDC 384).
# [2] = system: P. aeruginosa ATCC 47085 biofilm; assay: Minimum biofilm eradication concentration (MBEC); type: cell-based, Pseudomonas aeruginosa; conditions: 48 h biofilm, 24 h treatment
# Description: (§1) Staphylococcus aureus (ATCC 25923) and Pseudomonas aeruginosa (ATCC 47085 (PA01)) were grown from fresh colonies in trypticase soy broth (TSB) and incubated overnight at 37° C. Fungal cultures, Candida albicans (ATCC 90028) and Candida auris (CDC 0382, 0384, 0387, and 0389), were grown overnight in sabouraud dextrose broth (SDB) or Roswell Park Memorial Institute medium (RPMI). Cultures of bacteria and fungi were centrifuged, and pellets were washed three times with phosphate buffered saline (PBS) and further resuspended in fresh PBS. Bacterial cultures were diluted in TSB and fungal cultures were diluted in SDB or RPMI to […] or 10^6 CFU/mL (optical density (OD) readings at 600 nm).
# (§2) Inocula (10^6 CFU/mL) of bacterial and fungal strains (P. aeruginosa, S. aureus, C. albicans, and C. auris) were incubated at 37° C. for 48 h in 1 mL of TSB or SDB in 96-well plates. Following incubation, the growth medium was gently removed, and wells were washed three times with sterile PBS. […] Wells, including well edges, were scraped thoroughly with a plastic spatula. Well contents were removed in 1 mL of neutralizing broth (Dey-Engley, Sigma-Aldrich) and placed in a sonicating water bath (Fisher Scientific FS60, 42 kHz, 100 W, Pittsburgh, PA, USA) to disrupt biofilms. […] After 24 h or 48 h of incubation at 37° C., colonies were counted and MBECs were determined. […]
# [3] = system: C. albicans ATCC 90028; assay: Minimum inhibitory concentration (MIC), broth microdilution; type: cell-based, Candida albicans; conditions: 37° C., 18-20 h
# Description: as §1
# Minimum inhibitory concentrations (MICs) were measured using the broth microdilution protocol described by the Clinical and Laboratory Standards Institute. […] Aliquots (100 μL) of a prepared inoculum (10^6 CFU/mL for bacteria and […] CFU/mL for fungi) were added, and plates were incubated at 37° C. for 18-20 h. Bacterial or fungal growth was visually observed to determine the MICs. Negative and positive controls were included for each set of MIC measurements. For studies with pluronic, the surfactant was added at 4% and 5% to the initial inocula in each experiment. Measurements were performed in triplicate for all susceptibility tests.
# [4] = system: C. albicans; assay: Kinetics of fungicidal activity; type: cell-based, Candida albicans; conditions: CSA-131 100 μg/mL, pluronic 4%, data not shown
# Description: (§3) Cultures were incubated at 37° C. At 5, 15, 30, 60, and 120 min, aliquots were removed from each well and added to neutralizing buffer to ensure that no further antibacterial activity occurred. These samples were then serially diluted and plated on TSA or SDA. Cultures were incubated at 37° C. for 24 h or 48 h, and colonies were counted and recorded.
# (§4) Detection limit was two logs.
# [5] = system: S. aureus ATCC 25923 biofilm; assay: Minimum biofilm eradication concentration (MBEC); type: cell-based, Staphylococcus aureus; conditions: 48 h biofilm, 24 h treatment
# Description: as §1, §2
# [6] = system: cilia on porcine trachea explants; conditions: for Number of explants (out of 12) clearing beads, <10 min / Number of explants (out of 12) clearing beads, <20 min / Number of explants (out of 12) clearing beads, <30 min / Number of explants (out of 12), No Clearance: CSA-131 100 μg/mL for 1 h; for Number of explants (out of 12) clearing beads, <20 min: between 10 and 20 min; for Number of explants (out of 12) clearing beads, <30 min: between 20 and 30 min; for Number of explants (out of 12), No Clearance: no clearance (>30 min)
# Description: In this example, the effect of CSA compositions with and without micelles was tested using ciliated porcine lung tissue. […] An ex vivo assay was used to evaluate pluronic-containing formulations, and in this assay the beating of cilia can be actively observed. […] This method involves sectioning porcine trachea, supported in a nutrient medium, placing small beads on one side of the explant, and measuring the transfer (clearance) of the beads to the other side of the explants (FIG. 5). […] Twelve explants were used for each test condition, and the results are reported as the number clearing beads in a given amount of time.
# Normal healthy porcine trachea and lung tissue was excised very fresh from slaughter. After aseptic collection, whole tissues were transported in a 1:1 mixture of Dulbecco's modified Eagle's medium (DMEM) and RPMI, which was pre-warmed and supplemented with penicillin-streptomycin-glutamine 100× (Hyclone, Logan, UT, USA). Explants were washed by tissue immersion three to four times in warm, fresh DMEM/RPMI media. Explants were maintained by continuous immersion in DMEM/RPMI media in a 5% CO2-95% air mixture in a humidified incubator at 37° C.
# Tracheas were washed and extra exterior tissues to the cartilage were removed. Tracheas were opened and cut into approximately 2×1 cm explants consisting of the respiratory mucosa and underlying cartilage. […] Explants were then placed on small circular filter papers, which were placed on top of 1% agarose gel plugs bathed in medium in 6-well plates. […] Five microliters of a suspension of 1 μm diameter polystyrene microsphere beads (Polysciences, Inc., Warrington, PA, USA) were pipetted on one edge of epithelial surfaces and evaluated for their complete clearance (movement) across the surface with categorization of clearance in under 10 min, between 10 and 20 min, between 20 and 30 min, and no clearance (>30 min). Independent replicates were completed for each time point. Outcomes were then counted and a percentage of clearance was determined.
# [7] = system: P. aeruginosa (ATCC 47085); assay: Kinetics of bactericidal activity (FIG. 4); type: cell-based, Pseudomonas aeruginosa; conditions: detection limit two logs
# Description: as §3, §4
# [8] = system: bacterial and fungal biofilms: S. aureus (ATCC 25923), P. aeruginosa (ATCC 47085), C. albicans (ATCC 90028), C. auris (CDC 384); assay: Antibiofilm activity by plating organisms freed from biofilms and counting colonies (FIG. 2); type: cell-based; conditions: 100 μg/mL, 48 h biofilms
# Description: Consequently, this concentration was used as a target for antibacterial and antifungal activity, as well as in tolerability studies with trachea and lung explants. A key preliminary question in these studies is whether the pluronic alone has any effect on bacteria and fungi. […] In these assays, biofilms were generated over 48 h, and after treatment, bacterial and fungal counts were determined by plating organisms freed from biofilms and counting colonies. Detection limits for the experiments were two logs. […] Antibiofilm results were determined through the plating of microorganisms freed from biofilms, culturing, and plate counting. In FIG. 2, white bars show remaining S. aureus (ATCC 25923); black bars show remaining P. aeruginosa (ATCC 47085); gray bars show remaining C. albicans (ATCC 90028); hashed bars show remaining C. auris (CDC 384). The Detection limit was 2 logs. * indicates p<0.05 relative to controls and to pluronic alone.
# [9] = CSA-131 100 μg/mL with pluronic (4%)
smiles,measurement,setting,value
CCCCCCCCCCCCNCCC[C@@H](C)[C@H]1CC[C@H]2[C@@H]3[C@H](OCCCN)C[C@@H]4C[C@H](OCCCN)CC[C@]4(C)[C@H]3C[C@H](OCCCN)[C@]12C.Cl.Cl.Cl.Cl [CSA-131],Decrease of fungal counts in treated explants vs control explants,[1]; CSA-131 alone,up to 99%
same,Decrease of fungal counts in treated explants vs control explants,"[1]; CSA-131 alone, p<0.05 vs controls",one and a half to two
same,Decrease of fungal counts in treated explants vs control explants,[1]; CSA-131 with pluronic 4%,up to 99%
same,Decrease of fungal counts in treated explants vs control explants,"[1]; CSA-131 with pluronic 4%, p<0.05 vs controls",one and a half to two
same,Decrease of fungal counts in treated explants vs control explants,[1]; CSA-131 with pluronic 5%,up to 99%
same,Decrease of fungal counts in treated explants vs control explants,"[1]; CSA-131 with pluronic 5%, p<0.05 vs controls",one and a half to two
same,MBEC,[2],100 µg/mL
same,MIC,[3],0.5 µg/mL
same,Difference in kinetic activity of the ceragenin alone and with pluronic,[4],no significant differences
same,MBEC,[5],100 µg/mL
same,"Number of explants (out of 12) clearing beads, <10 min",[6]; 0% pluronic,3/12
same,"Number of explants (out of 12) clearing beads, <20 min",[6]; 0% pluronic,2/12
same,"Number of explants (out of 12) clearing beads, <30 min",[6]; 0% pluronic,1/12
same,"Number of explants (out of 12), No Clearance",[6]; 0% pluronic,six of 12 and 6/12
same,"Number of explants (out of 12) clearing beads, <10 min",[6]; 1% pluronic,4/12
same,"Number of explants (out of 12) clearing beads, <20 min",[6]; 1% pluronic,2/12
same,"Number of explants (out of 12) clearing beads, <30 min",[6]; 1% pluronic,1/12
same,"Number of explants (out of 12), No Clearance",[6]; 1% pluronic,5/12
same,"Number of explants (out of 12) clearing beads, <10 min",[6]; 2% pluronic,7/12
same,"Number of explants (out of 12) clearing beads, <20 min",[6]; 2% pluronic,3/12
same,"Number of explants (out of 12) clearing beads, <30 min",[6]; 2% pluronic,2/12
same,"Number of explants (out of 12) clearing beads, <10 min",[6]; 3% pluronic,7/12
same,"Number of explants (out of 12) clearing beads, <20 min",[6]; 3% pluronic,4/12
same,"Number of explants (out of 12) clearing beads, <30 min",[6]; 3% pluronic,1/12
same,"Number of explants (out of 12) clearing beads, <10 min",[6]; 4% pluronic,8/12
same,"Number of explants (out of 12) clearing beads, <20 min",[6]; 4% pluronic,4/12
same,"Number of explants (out of 12) clearing beads, <10 min",[6]; 5% pluronic,10/12
same,"Number of explants (out of 12) clearing beads, <20 min",[6]; 5% pluronic,2/12
same,Influence on bead clearance,[6]; [9],did not influence bead clearance
same,Bead clearance / ciliary activity compared with the control,"[6]; CSA-131 100 μg/mL, 5% pluronic",the same as the control
same,Time for inocula of just over 106 CFU/mL to be reduced to the detection limit,[7]; CSA-131 100 μg/mL alone,≤ 15 min
same,Time for inocula of just over 106 CFU/mL to be reduced to the detection limit,[7]; [9],≤ 15 min
same,Reduction of bacterial and fungal counts from biofilms,[8]; with pluronic,> 99.99%
same,Reduction of bacterial and fungal counts from biofilms,"[8]; with pluronic, counts lowered to the detection limit (two logs)",> four
same,Reduction of bacterial and fungal counts from biofilms,[8]; without pluronic,> 99.99%
same,Reduction of bacterial and fungal counts from biofilms,"[8]; without pluronic, counts lowered to the detection limit (two logs)",> four
